Measurements: patent US20260347373A1, “HETEROCYCLIC COMPOUNDS, COMPOSITIONS THEREOF, AND METHODS OF TREATMENT THEREWITH” (BeOne Medicines I GmbH, priority 2023, published 2026)
Structures can show the parent of a compound that is named as a salt. Where two headings read alike, the source gives them in different places.

What was measured:
WT KRAS = WT KRAS (Homo sapiens, UniProt P01116); assay: KRAS WT Probe Displacement Assay (TR-FRET, GDP-loaded); type: binding
From the text: (§1) The synthetic routes of probe 1 and 2, which have been disclosed in PCT/CN2022/070676, are hereby incorporated herein.

KRAS G12D = KRAS G12D (Homo sapiens, UniProt P01116, G12D); assay: KRAS G12D Probe Displacement Assay (TR-FRET, GDP-loaded); type: binding
KRAS G12D, sequence (P01116 1-188 isoform P01116-2 G12D): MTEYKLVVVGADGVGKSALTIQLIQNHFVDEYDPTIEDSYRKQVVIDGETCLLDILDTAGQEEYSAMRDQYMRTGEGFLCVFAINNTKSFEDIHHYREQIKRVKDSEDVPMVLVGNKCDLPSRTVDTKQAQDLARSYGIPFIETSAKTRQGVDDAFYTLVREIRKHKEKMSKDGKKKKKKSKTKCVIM
From the text: as §1

[1] = KRAS WT, read-out: KRAS^WT Probe Displacement Assay IC50
[2] = KRAS G12D, read-out: KRAS^G12D Probe Displacement Assay IC50

WT KRAS, sequence (P01116 1-188 isoform P01116-2): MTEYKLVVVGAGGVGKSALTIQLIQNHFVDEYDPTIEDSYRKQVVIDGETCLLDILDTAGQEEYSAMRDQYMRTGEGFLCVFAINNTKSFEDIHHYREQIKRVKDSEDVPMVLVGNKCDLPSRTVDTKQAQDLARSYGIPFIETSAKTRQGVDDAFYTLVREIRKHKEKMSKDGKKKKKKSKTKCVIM

SMILES | IC50 (WT KRAS; [1]) [nM] | IC50 (KRAS G12D; [2]) [nM] | IC50 (WT KRAS; KRAS^WT Probe Displacement Assay IC50, KRAS WT) [nM] | IC50 (KRAS G12D; KRAS^G12D Probe Displacement Assay IC50, KRAS G12D) [nM]
Cc1cc(N)cc(-c2nc3c4c(nc(OCC5(CN6CCCOCC6)CC5)nc4c2F)N2C[C@H]4CC[C@H](N4)[C@H]2CCO3)c1C(F)(F)F [Example 103, 3-((6aR,7S,10R)-13-- ((1-((1,4-oxazepan-4-yl)methyl)cyclopropyl)methoxy)-1-fluoro-5,6,6a,7,8,9,10,11-octahydro-4-oxa-3,11a, 12,14,15-pentaaza-7,10-methanocyclohepta [4,5]cycloocta [1,2,3-de]naphthalen-2-yl)-5-methyl-4-(trifluoromethyl)aniline] | 3 to 1000 | < 0.3 | – | –
[2H]C([2H])([2H])N1CCC[C@H]1[C@H](C)Oc1nc2c3c(nc(-c4cc(N)cc(C)c4C(F)(F)F)c(F)c3n1)OCC[C@@H]1[C@@H]3CC[C@H](CN21)N3 [Example 141, 3-((6aR,7S,10R)-1-fluoro-13-((S)-1-((S)-1-(methyl-d3)pyrrolidin-2-yl)ethoxy)-5,6,6a,7,8,9,10,11-octahydro-4-oxa-3,11a,12,14,15-pentaaza-7,10-methano-cyclohepta[4,5]cycloocta [1,2,3-de]naphthalen-2-yl)-5-methyl-4-(trifluoromethyl)aniline] | 3 to 1000 | < 0.3 | – | –
Cc1cc(N)cc(-c2nc3c4c(nc(OCC5(CN6C[C@H]7C[C@@H]6CO7)CC5)nc4c2F)N2C[C@H]4CC[C@H](N4)[C@H]2CCO3)c1C(F)(F)F [Example 65, 3-((6aR,7S,10R)-13-((1-(((1R,4R)-2-oxa-5-azabicyclo[2.2.1]heptan-5-yl)methyl)cyclopropyl)methoxy)-1-fluoro-5,6,6a,7,8,9,10,11-octahydro-4-oxa-3,11a,12,14,15-pentaaza-7,10-methanocyclohepta[4,5]cycloocta [1,2,3-de]naphthalen-2-yl)-5-methyl-4-(trifluoromethyl)aniline] | 3 to 1000 | < 0.3 | – | –
Cc1cc(N)cc(-c2nc3c4c(nc(O[C@H]5COCC[C@@H]5N(C)C)nc4c2F)N2C[C@H]4CC[C@H](N4)[C@H]2CCO3)c1C(F)(F)F [Example 8, (3R,4S)-3-(((6aR,7S,10R)-2-(5-amino-3-methyl-2-(trifluoromethyl)phenyl)-1-fluoro-5,6,6a,7,8,9,10,11-octahydro-4-oxa-3,11a,12,14,15-pentaaza-7,10-methanocyclohepta[4,5]cycloocta [1,2,3-de]naphthalen-13-yl)oxy)-N,N-dimethyltetrahydro-2H-pyran-4-amine] | 3 to 1000 | 0.3 to 3 | – | –
Cc1cc(N)cc(-c2nc3c4c(nc(OCC5(CN6CCC(O)(C(F)(F)F)CC6)CC5)nc4c2F)N2C[C@H]4CC[C@H](N4)[C@H]2CCO3)c1C(F)(F)F [Example 114, 1-((1-((((6aR,7S,10R)-2-(5-amino-3-methyl-2-(trifluoromethyl)phenyl)-1-fluoro-5,6,6a,7,8,9,10,11-octahydro-4-oxa-3,11a,12,14,15-pentaaza-7,10-methanocyclohepta [4,5]cycloocta [1,2,3-de]naphthalen-13-yl)oxy)methyl)cyclopropyl)methyl)-4-(trifluoromethyl) piperidin-4-ol] | 0.3 to 3 | < 0.3 | – | –
COC1CCCN(CC2(COc3nc4c5c(nc(-c6cc(N)cc(C)c6C(F)(F)F)c(F)c5n3)OCC[C@@H]3[C@@H]5CC[C@H](CN43)N5)CC2)C1 (stereo partly drawn) [Example 119, 3-((6aR,7S,10R)-1-fluoro-13-((1-((3-methoxypiperidin-1-yl)methyl)cyclopropyl)methoxy)-5,6,6a,7,8,9,10,11-octahydro-4-oxa-3,11a,12,14,15-pentaaza-7,10-methanocyclohepta [4,5]cycloocta[1,2,3-de]naphthalen-2-yl)-5-methyl-4-(trifluoromethyl) aniline] | – | – | 3 to 1000 | < 0.3
Cc1cc(N)cc(-c2nc3c4c(nc(OCC56C=CCN5C[C@H](F)C6)nc4c2F)N2C[C@H]4CC[C@H](N4)[C@H]2CCO3)c1C(F)(F)F (single isomer, unassigned) [Example 204] | 3 to 1000 | < 0.3 | – | –
Cc1cc(N)cc(-c2nc3c4c(nc(OCC5(C)CN(C)CCN5C)nc4c2F)N2C[C@H]4CC[C@H](N4)[C@H]2CCO3)c1C(F)(F)F (single isomer, unassigned) [Example 4] | 3 to 1000 | < 0.3 | – | –
[2H]C([2H])([2H])N1C[C@H](OC)C[C@H]1[C@H](C)Oc1nc2c3c(nc(-c4cc(N)cc(C)c4C(F)(F)F)c(F)c3n1)OCC[C@@H]1[C@@H]3CC[C@H](CN21)N3 [Example 219, 3-((6aR,7S,10R)-1-fluoro-13-((S)-1-((2S,4R)-4-methoxy-1-(methyl-d3)pyrrolidin-2-yl)ethoxy)-5,6,6a,7,8,9,10,11-octahydro-4-oxa-3,11a,12,14,15-pentaaza-7,10-methanocyclohepta[4,5]cycloocta[1,2,3-de]naphthalen-2-yl)-5-methyl-4-(trifluoromethyl)aniline] | 3 to 1000 | < 0.3 | – | –
[2H]C([2H])([2H])c1cc(N)cc(-c2nc3c4c(nc(OC[C@]5(CN(C)C)CC5(F)F)nc4c2F)N2C[C@H]4CC[C@H](N4)[C@H]2CCO3)c1C(F)(F)F [Example 47, 3-((6aR,7S,10R)-13-(((R)-1-((dimethylamino)methyl)-2,2-difluorocyclopropyl)methoxy)-1-fluoro-5,6,6a,7,8,9,10,11-octahydro-4-oxa-3,11a,12,14,15-pentaaza-7,10-methanocyclohepta[4,5]cycloocta [1,2,3-de]naphthalen-2-yl)-5-(methyl-d3)-4-(trifluoromethyl)aniline] | 3 to 1000 | < 0.3 | – | –
Cc1cc(N)cc(-c2nc3c4c(nc(OCC5(CN6C[C@H](C)O[C@@H](C)C6)CC5(F)F)nc4c2F)N2C[C@H]4CC[C@H](N4)[C@H]2CCO3)c1C(F)(F)F (single isomer, unassigned) [Example 26] | 3 to 1000 | 0.3 to 3 | – | –
Cc1nc(N)cc(-c2nc3c4c(nc(OCC5(CN6CCC(=C(F)F)C6)CC5)nc4c2F)N2C[C@H]4CC[C@H](N4)[C@H]2CCO3)c1C(F)(F)F [Example 150, 4-((6aR,7S,10R)-13-((1-((3-(difluoromethylene)pyrrolidin-1-yl)methyl)cyclopropyl)methoxy)-1-fluoro-5,6,6a,7,8,9,10,11-octahydro-4-oxa-3,11a,12,14,15-pentaaza-7,10-methano-cyclohepta[4,5]cycloocta [1,2,3-de]naphthalen-2-yl)-6-methyl-5-(trifluoromethyl)pyridin-2-amine] | 3 to 1000 | < 0.3 | – | –
Cc1nc(N)cc(-c2nc3c4c(nc(OCC5(CN6CCC(=CF)CC6)CC5)nc4c2F)N2C[C@H]4CC[C@H](N4)[C@H]2CCO3)c1C(F)(F)F [Example 155, 4-((6aR,7S,10R)-1-fluoro-13-((1-((4-(fluoromethylene)piperidin-1-yl)methyl)cyclopropyl)methoxy)-5,6,6a,7,8,9,10,11-octahydro-4-oxa-3,11a,12,14,15-pentaaza-7,10-methanocyclohepta[4,5]cycloocta [1,2,3-de]naphthalen-2-yl)-6-methyl-5-(trifluoromethyl)pyridin-2-amine] | 3 to 1000 | < 0.3 | – | –
COC[C@H]1[C@H]2C[C@H]2CN1CC1(COc2nc3c4c(nc(-c5cc(N)cc(C)c5C(F)(F)F)c(F)c4n2)OCC[C@@H]2[C@@H]4CC[C@H](CN32)N4)CC1 [Example 183, 3-((6aR,7S,10R)-1-fluoro-13-((1-(((1S,2R,5R)-2-(methoxymethyl)-3-azabicyclo[3.1.0]hexan-3-yl)methyl)cyclopropyl)methoxy)-5,6,6a,7,8,9,10,11-octahydro-4-oxa-3,11a,12,14,15-pentaaza-7,10-methanocyclohepta[4,5]cycloocta[1,2,3-de]naphthalen-2-yl)-5-methyl-4-(trifluoromethyl)aniline] | 3 to 1000 | < 0.3 | – | –
Cc1cc(N)cc(-c2nc3c4c(nc(OCC5(CN6C[C@H](O)[C@@H](F)C6)CC5)nc4c2F)N2C[C@H]4CC[C@H](N4)[C@H]2CCO3)c1C(F)(F)F (stereo in doubt) [Example 94, trans-1-((1-((((6aR, 7S,10R)-2-(5-amino-3-methyl-2-(trifluoromethyl)phenyl)-1-fluoro-5,6,6a,7,8,9,10,11-octahydro-4-oxa-3,11a,12,14,15-pentaaza-7,10-methanocyclohepta [4,5]cycloocta[1,2,3-de]naphthalen-13-yl)oxy)methyl)cyclopropyl)methyl)-4-fluoropyrrolidin-3-ol formate] | 3 to 1000 | < 0.3 | – | –
CN(C)C[C@@]1(COc2nc3c4c(nc(-c5cc(N)cc(Cl)c5C(F)(F)F)c(F)c4n2)OCC[C@@H]2[C@@H]4CC[C@H](CN32)N4)CC1(F)F [Example 45, 3-chloro-5-((6aR,7S,10R)-13-(((R)-1-((dimethylamino)methyl)-2,2-difluorocyclopropyl)methoxy)-1-fluoro-5,6,6a,7,8,9,10,11-octahydro-4-oxa-3,11a,12,14,15-pentaaza-7,10-methanocyclohepta[4,5]cycloocta[1,2,3-de]naphthalen-2-yl)-4-(trifluoromethyl)aniline] | 0.3 to 3 | < 0.3 | – | –
Cc1cc(N)cc(-c2nc3c4c(nc(OC[C@@H]5OC[C@H]5N(C)C)nc4c2F)N2C[C@H]4CC[C@H](N4)[C@H]2CCO3)c1C(F)(F)F [Example 130, (2R,3R)-2-((((6aR,7S,10R)-2-(5-amino-3-methyl-2-(trifluoromethyl)phenyl)-1-fluoro-5,6,6a,7,8,9,10,11-octahydro-4-oxa-3,11a,12,14,15-pentaaza-7,10-methanocyclohepta[4,5]cycloocta [1,2,3-de]naphthalen-13-yl)oxy)methyl)-N,N-dimethyloxetan-3-amine] | 3 to 1000 | 0.3 to 3 | – | –
